Source: US5958981A, “γ-diketone compounds with inhibitory activity against platelet aggregation” (Meiji Seika Kabushiki Kaisha, priority 1994, dated 1999)
pIC50: −log10 of the molar value. Counter-ions that a name gives are not always drawn.

Tested on: human PRP (platelet rich plasma), platelet aggregation
Assay: Inhibitory activity against ADP-induced platelet aggregation in human PRP (platelet rich plasma)
Format: cell-based
Details: aggregation inducer ADP final concentration 5 μM, preincubated 2 min
Description: Pharmacological Test: Inhibitory activity against platelet aggregation
The inhibitory activity of the compound according to the present invention against platelet aggregation was examined with human PRP (platelet rich plasma).
Nine volumes of a blood sample was taken out of the vein of a normal human with a syringe in which one volume of a 3.8% sodium citrate solution was charged. The blood sample was centrifuged at 170×g at room temperature for 10 min. The supernatant thus obtained was isolated as PRP. The residual blood sample that PRP had been taken out was centrifuged at 2,700×g for 15 minutes. The supernatant was then taken as platelet poor plasma (PPP).
A platelet aggregation test was conducted with an aggligometer (PAM-8C, manufactured by MEBANICKS Co., Ltd.). Compounds under test were dissolved in a 50% DMSO saline, a 50% methanol saline, or physiological saline. The compound under test and PRP were preincubated for 2 min. An aggregation inducer ADP (CHRONO-PAR REAGENTS 384 ADP, CHRONO-LOG Corp.) was used in the form of a dilution with saline so that the final concentration is 5 μM.
The anti-platelet aggregation activity was determined as an inhibition rate to platelet aggregation effect of ADP in the absence of a compound under test as follows. [formula]

SMILES	pIC50
O=C(O)COc1ccc(C(=O)CCC(=O)c2cc3c(s2)CCNC3)cc1OCC(=O)O [Example 1, [[4-[1,4-Dioxo-4-(4,5,6,7-tetrahydrothieno[3,2-c]pyridin-2-yl)butan-1-yl]-1,2-phenylene]dioxy]diacetic acid trifluoroacetate]	6.89
CCCCOC(=O)COc1ccc(C(=O)CCC(=O)c2cc3c(s2)CCNC3)cc1OCC(=O)OCCCC [Example 2, Di-n-butyl [[4-[1,4-dioxo-4-(4,5,6,7-tetrahydrothieno[3,2-c]pyridin-2-yl)butan-1-yl]-1,2-phenylene]dioxy]diacetate hydrochloride]	5.70
N=C(N)c1ccc(C(=O)CCC(=O)c2ccc(OCC(=O)O)c(OCC(=O)O)c2)cc1 [Example 3, [[4-[4-(4-Amidinophenyl)-1,4-dioxobutan-1-yl]-1,2-phenylene]dioxy]diacetic acid trifluoroacetate]	7.77
CCCCOC(=O)COc1ccc(C(=O)CCC(=O)c2ccc(C(=N)N)cc2)cc1OCC(=O)OCCCC [Example 4, Di-n-butyl [[4-[4-(4-amidinophenyl)-1,4-dioxobutan-1-yl]-1,2-phenylene]dioxy]diacetate trifluoroacetate]	7.64
CCCCOC(=O)COc1ccc(C(=O)CCC(=O)c2ccc(C(=N)N)cc2)cc1 [Example 5, n-Butyl 4-[4-(4-amidinophenyl)-1,4-dioxobutan-1-yl]phenoxyacetate hydroiodide]	7.37
N=C(N)c1ccc(C(=O)CCC(=O)c2ccc(OCC(=O)O)cc2)cc1 [Example 6, 4-[4-(4-Amidinophenyl)-1,4-dioxobutan-1-yl]phenoxyacetic acid hydrochloride]	> 7.00
